Format in all cases: cell-based
For one assay, the system named is E. faecalis (ATCC 29212). Nature of the assay: Antibacterial susceptibility testing (MIC, broth microdilution or agar dilution), E. faecalis. The following applies: Enterococcus faecalis, ATCC29212; read-out: E. faecalis (ATCC 29212) minimal inhibitory concentration (MIC). As to the method: (§1) Compounds of the invention were tested for antimicrobial activity by susceptibility testing in liquid or on solid media. MICs for compounds against each strain were determined by the broth microdilution or agar dilution method according to the guidelines of the Clinical Laboratories and Standards Institute, formerly the National Committee for Clinical Laboratory Standards (Clinical Laboratories and Standards Institute. Methods for Dilution Antimicrobial Susceptibility Tests for Bacteria That Grow Aerobically; Approved Standard—Seventh Edition. Document M7-A7. CLSI, Wayne, Pa., 2006; Clinical Laboratories and Standards Institute. The Gram positive bacterial strains tested include S. aureus (Staphylococcus aureus (Isolate ID ATCC 29213)), E. faecalis (Enterococcus faecalis (Isolate ID ATCC 29212)) and S. pyogenes (Streptococcus pyogenes (Isolate ID ATCC 51339)). The Gram negative bacterial strains tested include H. influenzae (Haemophilus influenzae (Isolate ID ATCC 49247)).

A further assay relates to S. aureus (ATCC 29213). Nature of the assay: Antibacterial susceptibility testing (MIC, broth microdilution or agar dilution), S. aureus. Conditions: Staphylococcus aureus, ATCC29213; read-out: S. aureus (ATCC 29213) minimal inhibitory concentration (MIC). The method in brief:
(§2)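 MICs by CLSI (M7-A7) broth microdilution or agar dilution, against reference ATCC strains as listed.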
(In general: In broth dilution the organism is exposed to a series of concentrations in liquid medium.)

Assay [1] has as its system H. influenzae (ATCC 49247). Briefly: Antibacterial susceptibility testing (MIC, broth microdilution or agar dilution), H. influenzae. Conditions: Haemophilus influenzae, ATCC49247; read-out: H. influenzae (ATCC 49247) minimal inhibitory concentration (MIC). As to the method:
as §1

The subject of a further assay is S. pyogenes (ATCC 51339). Nature of the assay: Antibacterial susceptibility testing (MIC, broth microdilution or agar dilution), S. pyogenes. The following applies: Streptococcus pyogenes, ATCC51339; read-out: S. pyogenes (ATCC 51339) minimal inhibitory concentration (MIC). In a few lines:
as §2

Converted amounts (≈) assume the structure as drawn. Bounds are passed on as bounds.

Take `CCNC(=O)Nc1cc(Nc2cccc(S(F)(F)(F)(F)F)c2)c(C(=O)Nc2ccc(CCC(=O)O)cc2)cn1` [Compound 237, 3-(4-{[(6-[(ethylcarbamoyl)amino]-4-{[3-(pentafluorothio)phenyl]amino}pyridin-3-yl)carbonyl]amino}phenyl)propanoic acid]: the MIC in the assay on E. faecalis (ATCC 29212) was no more than 1 µg/mL; with S. aureus (ATCC 29213), no more than 1 µg/mL; in assay [1] it was 2 µg/mL (≈ 3.49 µM).

As to `CCNC(=O)Nc1cc(Nc2ccc(C)c(F)c2)c(C(=O)Nc2ccc(CCC(=O)O)cc2)cn1` [Compound 222, 3-{4-[({6-[(ethylcarbamoyl)amino]-4-[(3-fluoro-4-methylphenyl)amino]pyridin-3-yl}carbonyl)amino]phenyl}propanoic acid], the MIC (in the assay with E. faecalis (ATCC 29212); in the assay on S. aureus (ATCC 29213); in assay [1]) was no more than 1 µg/mL throughout.

Take `CCNC(=O)Nc1cc(Nc2ccc(F)cc2F)c(C(=O)Nc2ccc(CCC(=O)O)cc2)cn1` [Compound 230, 3-{4-[({4-[(2,4-difluorophenyl)amino]-6-[(ethylcarbamoyl)amino]pyridin-3-yl}carbonyl)amino]phenyl}propanoic acid]: the MIC (with E. faecalis (ATCC 29212); in the assay with S. aureus (ATCC 29213); in assay [1]) was no more than 1 µg/mL in each case.

Consider `CCNC(=O)Nc1cc(Nc2cncc(F)c2)c(C(=O)Nc2ccc(CCC(=O)O)cc2)cn1` [Compound 236], for which the MIC in the assay on E. faecalis (ATCC 29212) is no more than 1 µg/mL; with S. aureus (ATCC 29213) it was 4 µg/mL (≈ 8.57 µM); in assay [1], 4 µg/mL (≈ 8.57 µM).

For the compound `CCNC(=O)Nc1cc(Nc2ccnc(OC)c2)c(C(=O)Nc2ccc(CC(C)(C)C(=O)O)cc2)cn1` [Compound 187, 3-{4-[({6-[(ethylcarbamoyl)amino]-4-[(2-methoxypyridin-4-yl)amino]pyridin-3-yl}carbonyl)amino]phenyl}-2,2-dimethylpropanoic acid], the MIC (in the assay with E. faecalis (ATCC 29212); in the assay with S. aureus (ATCC 29213); in assay [1]) was no more than 1 µg/mL throughout.

`CCNC(=O)Nc1cc(Nc2ccccc2)c(C(=O)Nc2ccc(-n3cccc3C(=O)O)cc2)cn1` [Compound 198, 1-{4-[({6-[(ethylcarbamoyl)amino]-4-(phenylamino)pyridin-3-yl}carbonyl)amino]phenyl}-1H-pyrrole-2-carboxylic acid]: the MIC in the assay with E. faecalis (ATCC 29212) is no more than 1 µg/mL; in the assay on S. aureus (ATCC 29213) it was 8 µg/mL (≈ 16.5 µM); in assay [1], 4 µg/mL (≈ 8.26 µM).

With `CCNC(=O)Nc1cc(Nc2cccc(C(F)(F)F)c2)c(C(=O)Nc2ccc(CCC(=O)O)cc2)cn1` [Compound 240, 3-(4-{[(6-[(ethylcarbamoyl)amino]-4-{[3-(trifluoromethyl)phenyl]amino}pyridin-3-yl)carbonyl]amino}phenyl)propanoic acid], the MIC (in the assay on E. faecalis (ATCC 29212); in the assay on S. aureus (ATCC 29213); in assay [1]) was no more than 1 µg/mL throughout.

`CCNC(=O)Nc1cc(Nc2cccc(C#N)c2)c(C(=O)Nc2ccc(CC(C)(C)C(=O)O)cc2)cn1` [Compound 199, 3-{4-[({4-[(3-cyanophenyl)amino]-6-[(ethylcarbamoyl)amino]pyridin-3-yl}carbonyl)amino]phenyl}-2,2-dimethylpropanoic acid]: the figures for the MIC (in the assay on E. faecalis (ATCC 29212); in the assay on S. aureus (ATCC 29213); in assay [1]) were no more than 1 µg/mL, 2 µg/mL (≈ 4 µM) and 2 µg/mL (≈ 4 µM), respectively.

Regarding `CCNC(=O)Nc1cc(Nc2ccccc2)c(C(=O)Nc2ccc(CCC(=O)N(C)OC)cc2)cn1` [Compound 123, 6-(3-Ethylureido)-N-(4-(3-(methoxy(methyl)amino)-3-oxopropyl)phenyl)-4-(phenylamino)nicotinamide], the MIC with S. pyogenes (ATCC 51339) is no more than 1 µg/mL; with S. aureus (ATCC 29213) it was no more than 1 µg/mL; in assay [1], 8 µg/mL (≈ 16.3 µM).

On to `CCNC(=O)Nc1cc(Nc2ccccc2)c(C(=O)Nc2ccc(CC(=O)O)cc2)cn1` [Compound 71, 2-(4-(6-(3-ethylureido)-4-(phenylamino)nicotinamido)phenyl)acetic acid], for which the figures for the MIC (with S. pyogenes (ATCC 51339); in the assay with S. aureus (ATCC 29213); in assay [1]) were no more than 1 µg/mL, 16 µg/mL (≈ 36.9 µM) and 2 µg/mL (≈ 4.61 µM), respectively.

On to `CCNC(=O)Nc1cc(Nc2ccccc2)c(C(=O)Nc2ccc(C(=O)O)cc2)cn1` [Compound 68, 4-(6-(3-ethylureido)-4-(phenylamino)nicotinamido)benzoic acid], for which the MIC is no more than 1 µg/mL in the assay on S. pyogenes (ATCC 51339), 8 µg/mL (≈ 19.1 µM) in the assay with S. aureus (ATCC 29213) and 4 µg/mL (≈ 9.54 µM) in assay [1].

The values are drawn from patent publication US9060515B2, “Heterocyclic urea compounds” (BIOTA EUROPE LTD, priority 2011, dated 2015).
